In patent US20200308222A1, “ANTIMICROBIAL TETRAPEPTIDES” (DSM IP ASSETS B.V., priority 2017, published 2020):
Values belong to the molecule of their own block, whether it stands above or below them. Non-standard residues stand in square brackets, D forms with d. Residues, ends and D or L forms follow the SMILES beside them. *: point of attachment. 2Nal = N[C@@H](Cc1ccc2ccccc2c1)C(=O)O; d2Nal = N[C@H](Cc1ccc2ccccc2c1)C(=O)O; Butanoyl(4-Ph) = O=C(CCCc1ccccc1)*; Dab = NCC[C@H](N)C(=O)O

Legend:
Test in all cases: Minimum inhibitory concentration (MIC), liquid media method in 96-well plates
B. subtilis (ATCC 6633) = assay type: cell-based, Bacillus subtilis; settings: 1,2×10^5 cfu/ml per well; incubated 48 hours at 32,5° C.; turbidity read-out
Description: (§1) The peptides are dissolved in culture medium at 400 ppm. A control in the microbiological medium alone and a control consisting of Phenonip® prepared to 5% (v/v) directly in the microbiological medium was used. The determination of minimal inhibitory concentration of each product is performed according to a liquid media method adapted in 96-wells plates. To determine the minimum inhibitory concentration (MIC), the peptides are tested in serial dilutions (½ to ½ for 8 dilutions) directly in the liquid culture medium to favor the growth of bacteria in microplate 96 wells. Then, each point of dilution is contaminated with each strain at about 7×10^5 cfu/ml for S. aureus (ATCC 6538), 5.5×10^5 cfu/ml for P. acnes (ATCC 11827) and 1,2×10^5 cfu/ml for B. subtilis (ATCC 6633) per well. Finally, plates are incubated 48 hours at 32, 5° C.±2.5° C., taking care to respect the respiratory type of each strain. […] The last dilution corresponding to the absence of bacterial growth is taken as minimum inhibitory concentration (MIC) for the microbial strain considered.

S. aureus (ATCC 6538) = assay type: cell-based, Staphylococcus aureus; settings: about 7×10^5 cfu/ml per well; incubated 48 hours at 32,5° C.; turbidity read-out
Description: as §1

P. acnes (ATCC 11827) = assay type: cell-based, Propionibacterium acnes; settings: 5.5×10^5 cfu/ml per well; incubated 48 hours at 32,5° C.; turbidity read-out
Description: as §1

SMILES: N=C(N)NCCC[C@H](NC(=O)[C@@H](Cc1ccccc1)NC(=O)[C@H](Cc1c[nH]cn1)NC(=O)CCCc1ccccc1)C(=O)N[C@@H](Cc1c[nH]c2ccccc12)C(=O)NCc1ccccc1 [I-f, PhBu-His-D-Phe-Arg-Trp-NH-Bn *2TFA]
MIC values B. subtilis (B. subtilis (ATCC 6633)): 252 ppm | MIC values S. aureus (S. aureus (ATCC 6538)): 400 ppm

SMILES: N=C(N)NCCC[C@H](NC(=O)[C@@H](Cc1ccccc1)NC(=O)[C@H](Cc1c[nH]cn1)NC(=O)CCCc1ccccc1)C(=O)N[C@@H](Cc1c[nH]c2ccccc12)C(=O)NCC(O)CO (stereo partly drawn) [I-h, PhBu-His-D-Phe-Arg-Trp-NH—CH2—CH(OH)—CH2OH *2TFA]
MIC values B. subtilis (B. subtilis (ATCC 6633)): 317 ppm

SMILES: CCCCCCCCNC(=O)[C@H](Cc1c[nH]c2ccccc12)NC(=O)[C@H](CCCNC(=N)N)NC(=O)[C@@H](Cc1ccccc1)NC(=O)[C@H](Cc1c[nH]cn1)NC(=O)CCCc1ccccc1 [I-g, PhBu-His-D-Phe-Arg-Trp-NH-Octyl *2TFA]
MIC values B. subtilis (B. subtilis (ATCC 6633)): 252 ppm | MIC values S. aureus (S. aureus (ATCC 6538)): 200 ppm

SMILES: CCCN(CCC)C(=O)[C@H](Cc1c[nH]c2ccccc12)NC(=O)[C@H](CCCNC(=N)N)NC(=O)[C@@H](Cc1ccccc1)NC(=O)[C@H](Cc1c[nH]cn1)NC(=O)CCCc1ccccc1 [I-d, PhBu-His-D-Phe-Arg-Trp-N(Propyl)2 *2TFA]
MIC values B. subtilis (B. subtilis (ATCC 6633)): 15.6 ppm | MIC values S. aureus (S. aureus (ATCC 6538)): 31.3 ppm | MIC values P. acnes (P. acnes (ATCC 11827)): 125 ppm

SMILES: N=C(N)NCCC[C@H](NC(=O)[C@@H](Cc1ccccc1)NC(=O)[C@H](Cc1c[nH]cn1)NC(=O)CCCc1ccccc1)C(=O)N[C@@H](Cc1ccc2ccccc2c1)C(N)=O [I-a, PhBu-His-D-Phe-Arg-L-2NaphAla-NH2 *2TFA] ({Butanoyl(4-Ph)}-H[dF]R[2Nal]-NH2)
MIC values B. subtilis (B. subtilis (ATCC 6633)): 62.5 ppm | MIC values S. aureus (S. aureus (ATCC 6538)): 125 ppm | MIC values P. acnes (P. acnes (ATCC 11827)): 500 ppm

The remaining lines, values ahead:

MIC values B. subtilis (B. subtilis (ATCC 6633)): 400 ppm
SMILES: NCC[C@H](NC(=O)[C@@H](Cc1ccccc1)NC(=O)[C@H](Cc1c[nH]cn1)NC(=O)CCCc1ccccc1)C(=O)N[C@@H](Cc1c[nH]c2ccccc12)C(N)=O [I-e, PhBu-His-D-Phe-Dab-Trp-NH2 *2TFA] ({Butanoyl(4-Ph)}-H[dF][Dab]W-NH2)

MIC values B. subtilis (B. subtilis (ATCC 6633)): 200 ppm
SMILES: COc1ccc(CCCC(=O)N[C@@H](Cc2c[nH]cn2)C(=O)N[C@H](Cc2ccccc2)C(=O)N[C@@H](CCCNC(=N)N)C(=O)N[C@@H](Cc2c[nH]c3ccccc23)C(N)=O)cc1 [I-c, 4-MeO—PhBu-His-D-Phe-Arg-Trp-NH2 × 2 AcOH]

MIC values B. subtilis (B. subtilis (ATCC 6633)): 100 ppm | MIC values P. acnes (P. acnes (ATCC 11827)): 400 ppm
SMILES: N=C(N)NCCC[C@H](NC(=O)[C@@H](Cc1ccccc1)NC(=O)[C@H](Cc1c[nH]cn1)NC(=O)CCCc1ccccc1)C(=O)N[C@H](Cc1ccc2ccccc2c1)C(N)=O [I-b, PhBu-His-D-Phe-Arg-D-2NaphAla-NH2 *2TFA] ({Butanoyl(4-Ph)}-H[dF]R[d2Nal]-NH2)
